{
  "source": "patent US20090062309A1",
  "about": "“Therapeutic compositions for the treatment of cardiovascular diseases and methods for use therefor” (priority 2007, published 2009)",
  "key": {"cell K uptake by RBC": {"system": "cell K uptake by RBC", "assay": "long-term assay from our laboratory: cell K uptake by RBC (results not shown)"}, "[1]": {"system": "subjects with CHD having decreased RBC K content", "assay_type": "in vivo, human", "experimental": "Subjects were evaluated by clinical angina (CCS angina Class II-IV), dyspnea, or arrhythmia.\nExclusion Criteria: Evidence of acute coronary syndrome, AMI, stroke or cardiac arrhythmias; NYHA class III-IV of heart failure, hyperkalemia. Informed consent was obtained in all. Other non CHD causes of chest pain, dyspnea, and arrhythmia had been ruled out.\nIn addition to that, a single dose of calcium gluconolactate (1 g/daily) was given to all subjects having plasma ionized ICa^2+ ≦1.1 mmol/L, while other Laboratory correction and drug assessment were conducted across the first 3-month period (Table 1) Safety control (ECG, Ion Transport Laboratory, BIA, Non-Invasive Hemodynamic) was obtained at 1, 3 and 6 months and 1 year. Clinical control was obtained weekly in the first month or as needed for physician or patient symptoms; thereafter a 3, 6 and 12 months.\nThe subjects were taken off any drug that might impair RBC transport, such as digitalis, β-blockers, or NSAID's, in subjects with RBC K^+ ≦90.2 mmol/L cell. Oral calcium gluconolactate (1 g/daily) was administered in all subjects with plasma ionized calcium ≦1.1 mmol/L. Subjects had correction of other plasma electrolyte abnormalities. The subjects were taken off any drug that may affect ventricular repolarization, as digoxin, calcium channel blockers (CCB), diuretics, β-blockers, or the like. […] Anti-aggregants or aspirin in subjects free of angina were discontinued after the 3rd month of treatment.\nAll subjects underwent: a) Serial ECG for LVH by Cornell or Sokolow-Lyon Criteria (QRS duration times Cornell voltage: R aVL+SV3, with 6 mm [added in women >2440 mm×ms], or Sokolow-Lyon voltage: [SV1+RV5/V6] >38 mm; along with LV strain pattern (classical ST-segment depressed, with inverted T-waves), or LVH voltage criteria with mild LV strain pattern (isoelectric, biphasic or non-symmetrical negative T-waves, without ST-segment depression), and ECG criteria for infarction and/or ischemia (Q-waves from previous AMI, decreased R-wave height, non-progressive R-wave voltages in precordial leads, ST-segment elevation […] often referred as injury current, ST-segment depression ≧[…] often downsloping from the J point, rectification of the ST segment, and isoelectric, biphasic, negative or inverted T-wave), intraventricular conduction disturbance, and arrhythmias); b) Non-invasive hemodynamic study (DP200M) for cardiac parameters (LV Ejection Time (LVET), LV dP/dT (LV delta pressure-time), Cardiac output and index (CO, Cl), Stroke Volume (SV), Pulse Wave Analysis (PWA) of Central Aortic Blood Pressure (BP), Aortic Systolic (SBP), Diastolic (DBP) and mean (m) BP, Aortic augmentation index; inflection point and reflected wave analysis, Systemic Vascular Resistance and Compliance (SVR/SVC), and Brachial Artery Distensibility (BAD), Brachial Artery Compliance (BAC); c) Ion Transport Studies for RBC (K^+, Na^+) plasma (K^+, Na^+, Cl^−, ICa^2+, Mg^2+), and 12-hours night urinary volume (K^+, Na^+, Cl^−, pH), d) Bio-Impedance Analysis (BIA, Quantum X, RJL Systems, MI, USA) for Total body Potassium, Total body water/Extracellular Water, Fat Mass (FM) and Fat-Free Mass (FFM) and e) Echocardiography was obtained at entry, 6 and 12 months periods."}},
  "data": [
    {"compound": "Cl.NC(N)=NC(=O)c1nc(Cl)c(N)nc1N.O.O", "note": "[Amiloride, 3,5-diamino-6-chloro-N-(diaminomethylene) pyrazinecarboxamide monohydrochloride, dihydrate]", "values": [
      {"measurement": "hereditable defect in cell K uptake by RBC", "setting": "cell K uptake by RBC", "value": "reverses a hereditable defect in cell K uptake by RBC"},
      {"measurement": "RBC K", "setting": "[1]; 1st month, baseline 84.5±4, p<0.001", "value": "93.5±4", "unit": "mmol/L cell"},
      {"measurement": "cardiovascular events or death", "setting": "[1]; 2 years of follow-up", "value": 0, "unit": "%"},
      {"measurement": "RBC K+", "setting": "[1]; 3rd month", "value": "remained improved"},
      {"measurement": "subjects with improved ST-segment depression or elevation and isoelectric, biphasic or inverted T-wave", "setting": "[1]; 3rd month, CHD subjects, no nitrates, lower anti-aggregants or aspirin", "value": 74, "unit": "%"},
      {"measurement": "LV Strain pattern", "setting": "[1]; 3rd month, hypertensives", "value": "improved or almost reversed"},
      {"measurement": "LVH voltage criteria", "setting": "[1]; 3rd month, hypertensives, p<0.001", "value": "significantly decreased"},
      {"measurement": "normotensive subjects with marked improved ST-segment depression or elevation and inverted T-waves", "setting": "[1]; 6th month, 3 out 4", "value": 75, "unit": "%"},
      {"measurement": "hypertensives subjects with improved LV Strain pattern", "setting": "[1]; 6th month, about 4 out of 5", "value": "~80", "unit": "%"},
      {"measurement": "ECG-LVH voltage, Sokolow-Lyon criteria", "setting": "[1]; 6th month, baseline 29.3±5.2, p=0.001", "value": "25.1±3.2", "unit": "mm"},
      {"measurement": "ECG-LVH voltage, Cornell", "setting": "[1]; 6th month, baseline 2577±509, p<0.02", "value": "2353±254", "unit": "mm×ms"},
      {"measurement": "subjects with previous inferior infarction whose ECGs remained unchanged for Q-waves", "setting": "[1]; 6th month, these subjects were free of angina", "value": 15, "unit": "%"},
      {"measurement": "QTc interval", "setting": "[1]; human, in vivo", "value": "prolonged"},
      {"measurement": "hyperkalemia", "setting": "[1]; human, in vivo", "value": "never observed"},
      {"measurement": "SVC (Systemic Vascular Compliance)", "setting": "[1]; hypertensives, 1st month, baseline 0.92±0.16, p<0.003", "value": "1.22±0.21", "unit": "ml/mmHg"},
      {"measurement": "LV dP/dT", "setting": "[1]; hypertensives, 1st month, baseline 1757±313, p<0.001", "value": "1302±276", "unit": "mmHg/s"},
      {"measurement": "BA Compliance", "setting": "[1]; hypertensives, 1st month, baseline printed 0.57±0.021, p<0.005", "value": "0.069±0.02", "unit": "ml/mmHg"},
      {"measurement": "angina, single subject FIG. 7B", "setting": "[1]; normotensive diabetic, after 5 months of Amiloride and calcium treatment", "value": "angina reversed"},
      {"measurement": "ECG change, single subject FIG. 3C", "setting": "[1]; normotensive person, bypass surgery, infarction, instable angina, 6-months Amiloride and calcium", "value": "reversion of T-wave alterations"},
      {"measurement": "angina, single subject FIG. 7A", "setting": "[1]; person, angina, diabetes, hypertension, after 4 months of Amiloride treatment", "value": "the angina reversed"},
      {"measurement": "clinical change, single subject FIG. 5B", "setting": "[1]; person, hypertension, LVH, 3-months Amiloride, antihypertensive and vasodilators drugs", "value": "reversion of clinical symptoms of exertional angina, and palpitations"},
      {"measurement": "clinical change, single subject FIG. 4B", "setting": "[1]; person, hypertension, infarction, heart failure, 2 months after addition of Amiloride and calcium gluconolactate", "value": "clinical improvement of angina (3 weeks), heart failure and hypertension"},
      {"measurement": "angina, single subject FIG. 6B", "setting": "[1]; person, hypertension, post-infarction angina, Amiloride treatment", "value": "rapid reversion of angina (7 days)"},
      {"measurement": "ECG T-waves, single subject FIG. 4B", "setting": "[1]; person, 2 months after addition of Amiloride and calcium gluconolactate", "value": "T-waves were improved"},
      {"measurement": "ECG T-wave, single subject FIG. 6B", "setting": "[1]; person, after 5-months of Amiloride treatment", "value": "reversion of T-wave inversion"},
      {"measurement": "free of angina and symptoms of heart failure", "setting": "[1]; within 1st month, Amiloride 5 mg/daily (calcium gluconolactate 1 g/daily if plasma ICa2+ ≦1.1 mmol/L), 75 CHD subjects", "value": "all subjects were free of angina and symptoms of heart failure"}
    ]}
  ]
}
